According to patent US6541463B1, “Inhibitors of type 5 and type 3 17β-hydroxysteroid dehydrogenase and methods for their use” (Endorecherche, Inc., priority 1998, dated 2003):

Tests used:
androgen receptor = target: T1, androgen receptor (Rattus norvegicus, UniProt P15207); assay: Androgen receptor (AR) assay: inhibition of [3H]R1881 binding, prostate cytosol; details: for inhibition at 1 µM: E^−6; for inhibition at 0.01 µM: E^−8
T1 construct: from tissue; host or cells: ventral prostate cytosol of gonadectomized male Sprague-Dawley rats
T1 sequence (P15207 1-902): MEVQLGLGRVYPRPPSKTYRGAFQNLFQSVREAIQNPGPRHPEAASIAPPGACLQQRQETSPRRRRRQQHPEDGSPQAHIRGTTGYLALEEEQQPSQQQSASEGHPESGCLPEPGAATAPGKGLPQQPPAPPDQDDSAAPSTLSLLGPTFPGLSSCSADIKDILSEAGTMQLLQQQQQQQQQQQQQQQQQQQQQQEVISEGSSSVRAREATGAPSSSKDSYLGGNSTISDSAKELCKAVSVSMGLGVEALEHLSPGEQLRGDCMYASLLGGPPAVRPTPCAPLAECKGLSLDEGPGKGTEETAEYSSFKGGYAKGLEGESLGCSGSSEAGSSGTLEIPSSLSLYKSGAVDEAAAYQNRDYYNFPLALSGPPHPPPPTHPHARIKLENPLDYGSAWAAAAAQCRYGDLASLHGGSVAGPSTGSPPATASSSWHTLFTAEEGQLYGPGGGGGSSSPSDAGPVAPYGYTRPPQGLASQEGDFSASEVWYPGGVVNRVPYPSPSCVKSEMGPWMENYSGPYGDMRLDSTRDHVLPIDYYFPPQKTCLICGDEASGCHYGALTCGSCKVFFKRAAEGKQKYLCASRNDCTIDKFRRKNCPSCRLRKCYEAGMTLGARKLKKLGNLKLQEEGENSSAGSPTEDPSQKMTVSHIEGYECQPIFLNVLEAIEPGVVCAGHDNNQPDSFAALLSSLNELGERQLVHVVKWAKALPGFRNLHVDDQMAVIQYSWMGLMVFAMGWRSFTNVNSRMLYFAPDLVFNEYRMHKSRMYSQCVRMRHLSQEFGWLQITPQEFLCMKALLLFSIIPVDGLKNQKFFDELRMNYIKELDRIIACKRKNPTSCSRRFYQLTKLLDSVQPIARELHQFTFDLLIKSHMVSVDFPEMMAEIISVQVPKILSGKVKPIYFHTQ
Procedure: The manner in which the percentage of inhibition is determined is described in “Other Tests; D-Androgen Receptor (AR) Assays”. Lower numbers are desirable.
(§1) Male Sprague-Dawley rats (Crl: CD(SD)Br) weighing 200-300 g were obtained from Charles-River Inc. (St-Constant, Québec, Canada). The rats were gonadectomized under general anesthesia (Isoflurane) and killed by cervical dislocation 24 hours later. The ventral prostates were rapidly removed, dissected free from adhering tissue and frozen on dry-ice. Prostates were kept at −80° C. until assay.
All subsequent steps were performed at 0-4° C. Prostates were homogenized in 5 vol (wt/vol) of buffer A (25 mM Tris-HCl, 1.5 mM EDTA disodium salt, 10 mM α-monothioglycerol, 10% glycerol, and 10 mM sodium molybdate, pH 7.4), using a Polytron PT-10 homogenizer (Brinkman Instruments, Canada) at a setting of 5 for three periods of 10 sec, with intervals of 10 sec for cooling. The homogenate was then centrifuged at 105,000×g for 60 min in a Beckman L5-65 ultracentrifuge (Fullerton, Calif.).
Androgen binding was measured using the hydroxylapatite assay (HAP). In brief, the radioactive steroid [^3H]R1881 solubilized in ethanol was diluted into buffer A. Aliquots of prostate cytosol preparation (0.1 ml) were then incubated with 8 nM [^3H]R1881 (0.1 ml, ˜200,000 cpm) in the presence or absence of the indicated concentrations of unlabeled compounds (0.1 ml, prepared in buffer A containing 10% ethanol) for 16-18 h at 0-4° C. […] Unbound steroids were separated by incubation for 40 min at 0-4° C. with 0.3 ml HAP prepared in buffer P (50 mM, Tris-HCl, 10 mM KH2PO4, pH 7.4) as follows: 10 g HAP were washed with buffer P until the supernatant reached a pH of 7.4 and then following centrifugation and decantation of the supernatant, 37.5 ml of buffer P were added. After incubation with HAP and 10 minutes of centrifugation at 1,000×g, the pellet was washed 3 times with 1 ml buffer P. Thereafter, the radioactivity was extracted from the pellet by incubation at room temperature for 60 minutes with 1 ml EtOH. After centrifugation, the supernatant was decanted into a scintillation vial and the pellet was extracted again with ethanol.

progesterone receptor = assay: Progesterone receptor assay: inhibition of [3H]R5020 binding, uterine cytosol; set-up: species or system rat
Procedure: The manner in which the percentage of inhibition is determined is described in “Other Tests; E-Progesterone Receptor Assay”. Lower numbers are desirable.
[17α-methyl-^3H]-promegestone (R5020) (84 Ci/mmol) and the corresponding unlabeled compound were purchased from New England Nuclear (Lachine, Québec, Canada). All other chemicals were of analytical grade.
Stock solutions of the unlabeled steroids were kept at 4° C. in ethanol. The desired steroid solutions were then prepared by appropriate dilution in buffer B (10 mM Tris-HCl, 1.5 mM EDTA, 10 mM α-monothioglycerol, pH 7.4) containing 30% ethanol.
as §1, with “Female” for “Male”, “rats” for “rats (Crl: CD(SD)Br)”, “uteri are” for “ventral prostates were”, “Tissues” for “Prostates”, “use.” for “assay.”
All procedures were performed at 4° C. Tissues were pulverized frozen in dry ice with a Thermovac pulverizer. The samples were then homogenized in 10 vol (w/v) of buffer A (25 mM Tris-HCl, 1.5 mM EDTA, 10 mM α-monothioglycerol, 10% glycerol, 10 mM sodium molybdate, pH 7.4) using a Polytron PT-10 homogenizer (Brinkmann Instruments, Canada) at a setting of 5 for two periods of 10 sec, with intervals of 10 sec for cooling. The homogenate was then centrifuged at 105,000×g for 90 min. The supernatant was used immediately for assay.
Progesterone binding was measured using the dextran-coated charcoal adsorption technique. […] Each concentration was done in triplicate. Assay was ended with 300 μl of DCC (1% Norit A and 0.1% Dextran T-70 in Buffer B). After 10 min of incubation, tubes were centrifuged at 2,000×g for 10 min. and decanted in vials with 6 ml of BCS liquid scintillation (New England Nuclear, Dupont). The radioactivity was measured in a Beckman counter at a counting efficiency of 35%.

Compound: COCCOc1cc2c(cc1C#N)C1CC[C@@]3(C)C(CC[C@@]34CCC(C)(C)C(=O)O4)C1CC2 (stereo partly shown) [EM-1396]
- inhibition at 1 µM (androgen receptor; Table 4′): 2%
- inhibition at 0.01 µM (androgen receptor; Table 4′): 0%
- % Inhibition Progesterone Receptor E^−6 (progesterone receptor; Table 4′): 0%
- % Inhibition Progesterone Receptor E^−8 (progesterone receptor; Table 4′): 0%

Compound: COc1ccc2c(c1)CCC1C2CCC2(C)C1CCC21CCC(C)(C)C(=O)O1 (stereo not shown) [EM-1370]
- inhibition at 1 µM (androgen receptor; Table 4′): 2%
- inhibition at 0.01 µM (androgen receptor; Table 4′): 3%
- % Inhibition Progesterone Receptor E^−6 (progesterone receptor; Table 4′): 0%
- % Inhibition Progesterone Receptor E^−8 (progesterone receptor; Table 4′): 0%

Compound: CC1(C)CC[C@@]2(CCC3C4CCc5cc6oncc6cc5C4CC[C@@]32C)OC1=O (stereo partly drawn) [EM-1407-CS, 1,3,5(10)-estratrien-(2,3-oximino)-17(R)-spiro-2′-(5′,5′-dimethyl-6′-oxo)tetrahydropyran]
- inhibition at 1 µM (androgen receptor; Table 4′): 0%
- inhibition at 0.01 µM (androgen receptor; Table 4′): 0%
- % Inhibition Progesterone Receptor E^−6 (progesterone receptor; Table 4′): 3%
- % Inhibition Progesterone Receptor E^−8 (progesterone receptor; Table 4′): 0%

Compound: COCCOc1cc2c(cc1C(=O)OC)C1CC[C@@]3(C)C(CC[C@@]34CCC(C)(C)C(=O)O4)C1CC2 (stereo partly drawn) [EM-1402-CS, 2-Carbomethoxy-3-(2″-methoxyethyloxy)-1,3,5(10)-estratrien 17(R)-spiro-2′-(5′,5′-dimethyl-6′-oxo)tetrahydropyran]
- inhibition at 1 µM (androgen receptor; Table 4′): 0%
- inhibition at 0.01 µM (androgen receptor; Table 4′): 0%
- % Inhibition Progesterone Receptor E^−6 (progesterone receptor; Table 4′): 4%
- % Inhibition Progesterone Receptor E^−8 (progesterone receptor; Table 4′): 2%

Compound: CC1(C)CC[C@@]2(CCC3C4CCc5cc(F)ccc5C4CC[C@@]32C)OC1=O (stereo partly shown) [EM-1157-CS]
- inhibition at 1 µM (androgen receptor; Table 4′): 0%
- inhibition at 0.01 µM (androgen receptor; Table 4′): 0%
- % Inhibition Progesterone Receptor E^−6 (progesterone receptor; Table 4′): 5%
- % Inhibition Progesterone Receptor E^−8 (progesterone receptor; Table 4′): 2%

Compound: COCCOc1ccc2c(c1)CCC1C2CCC2(C)C1CCC21CCC(C)(C)C(=O)O1 [EM-1368-CS, 3-Methoxyethoxy-1,3,5(10)-estratrien-17(R)-spiro-2′-(5′,5′-dimethyl-6′-oxo)-tetrahydropyran]
- inhibition at 1 µM (androgen receptor; Table 4′): 0%
- inhibition at 0.01 µM (androgen receptor; Table 4′): 0%
- % Inhibition Progesterone Receptor E^−6 (progesterone receptor; Table 4′): 3%
- % Inhibition Progesterone Receptor E^−8 (progesterone receptor; Table 4′): 0%

Compound: COc1cc2c(cc1C)C1CCC3(C)C(CCC34CCC(C)(C)C(=O)O4)C1CC2 (stereo not shown) [EM-1412-CS]
- inhibition at 1 µM (androgen receptor; Table 4′): 0%
- inhibition at 0.01 µM (androgen receptor; Table 4′): 0%
- % Inhibition Progesterone Receptor E^−6 (progesterone receptor; Table 4′): 0%
- % Inhibition Progesterone Receptor E^−8 (progesterone receptor; Table 4′): 0%

Compound: CC12C=CC(=O)C=C1C=CC1C2CCC2(C)C(=O)C3(CCCCC3)CC12 (stereo not shown) [CS-204]
- inhibition at 1 µM (androgen receptor): 5%
- inhibition at 0.01 µM (androgen receptor): 0%
- % Inhibition Progesterone Receptor E^−6 (progesterone receptor): 2%
- % Inhibition Progesterone Receptor E^−8 (progesterone receptor): 0%

Compound: CC1(C)CC[C@@]2(CCC3C4CCc5cc(C(N)=O)ccc5C4CCC32C)OC1=O (stereo partly shown) [EM-1404]
- inhibition at 1 µM (androgen receptor; Table 4′): 0%
- inhibition at 0.01 µM (androgen receptor; Table 4′): 0%
- % Inhibition Progesterone Receptor E^−6 (progesterone receptor; Table 4′): 0%
- % Inhibition Progesterone Receptor E^−8 (progesterone receptor; Table 4′): 0%

Compound: CC1(C)CCC2(CCC3C4CCc5cc(O)c([N+](=O)[O-])cc5C4CCC32C)OC1=O (stereo not shown) [EM-1125-CS]
- inhibition at 1 µM (androgen receptor; Table 4′): 1%
- inhibition at 0.01 µM (androgen receptor; Table 4′): 2%
- % Inhibition Progesterone Receptor E^−6 (progesterone receptor; Table 4′): 7%
- % Inhibition Progesterone Receptor E^−8 (progesterone receptor; Table 4′): 5%
